These are literature values, as cited in article PMC10940605, “Design, synthesis and in vitro anticancer activity of some new lomefloxacin derivatives” (Scientific Reports, 2024).

Series [1] has as its target Topoisomerase II. Also on record: method as in PMID 10051540, PMID 8824299, PMID 9651360. To be noted: Topoisomerase II catalytic inhibitor, Fig. 1; cited from earlier work.
Series [2] relates to MCF-7 cancer cell lines. On the set-up: method as in PMID 22301863. The settings on record: MCF-7, Fig. 2; cited from earlier work.
Series [3] relates to HCT-8 cancer cell lines. On the set-up: method as in PMID 22301863. To be noted: HCT-8, Fig. 2; cited from earlier work.
The test system of series [4] is SMMC7721 cancer cell lines. On the set-up: method as in PMID 22301863. To be noted: SMMC7721, Fig. 2; cited from earlier work.

Molecules are shown by their SMILES.

As to `O=C1NC(=S)NC(=O)C1C(=O)Nc1ccccc1` [Merbarone], the IC50 (in general, the midpoint of a concentration-inhibition curve) in series [1] is 20 µM.

As to `O=C(N/N=C/c1ccc2c(c1)OCO2)c1cn(C2CC2)c2cc(N3CCNCC3)c(F)cc2c1=O` [QNT4], the figures for the IC50 in series [2], in series [3] and in series [4] were 3.71 µM, 3.69 µM and 2960 nM, respectively.
